Measurements from the NIST ThermoML archive (doi:10.1021/acs.jced.8b00854).

Key:
[1] = xn = mol fraction of the nth substance listed; conditions: 100 kPa, Liquid, Vibrating tube method
[2] = refractive index (Na D-line) (dimensionless); xn = mol fraction of the nth substance listed; conditions: 100 kPa, Liquid, Standard Abbe refractometry

CCCCn1cc[n+](C)c1.F[B-](F)(F)F [1-butyl-3-methylimidazolium tetrafluoroborate] + O
Conditions | mass density, [1] [kg/m3] | refractive index, [2]
293.15 K, x1 = 0.0994 | 1106.69 | 1.383
293.15 K, x1 = 0.2005 | 1143.19 | 1.397
293.15 K, x1 = 0.3003 | 1161.69 | 1.406
293.15 K, x1 = 0.4003 | 1173.6 | 1.411
293.15 K, x1 = 0.5006 | 1182.13 | 1.414
293.15 K, x1 = 0.6004 | 1188.42 | 1.4165
293.15 K, x1 = 0.7008 | 1193.17 | 1.418
293.15 K, x1 = 0.8006 | 1196.75 | 1.42
293.15 K, x1 = 0.899 | 1199.6 | 1.4215
303.15 K, x1 = 0.0994 | 1100.29 | 1.379
303.15 K, x1 = 0.2005 | 1135.92 | 1.395
303.15 K, x1 = 0.3003 | 1154.24 | 1.403
303.15 K, x1 = 0.4003 | 1166.15 | 1.409
303.15 K, x1 = 0.5006 | 1174.73 | 1.4125
303.15 K, x1 = 0.6004 | 1181.09 | 1.415
303.15 K, x1 = 0.7008 | 1185.92 | 1.4165
303.15 K, x1 = 0.8006 | 1189.58 | 1.418
303.15 K, x1 = 0.899 | 1192.49 | 1.4195
313.15 K, x1 = 0.0994 | 1093.06 | 1.3765
313.15 K, x1 = 0.2005 | 1128.35 | 1.394
313.15 K, x1 = 0.3003 | 1146.77 | 1.4015
313.15 K, x1 = 0.4003 | 1158.78 | 1.4075
313.15 K, x1 = 0.5006 | 1167.43 | 1.41
313.15 K, x1 = 0.6004 | 1173.85 | 1.4125
313.15 K, x1 = 0.7008 | 1178.71 | 1.414
313.15 K, x1 = 0.8006 | 1182.39 | 1.416
313.15 K, x1 = 0.899 | 1185.31 | 1.4175
323.15 K, x1 = 0.0994 | 1085.97 | 1.376
323.15 K, x1 = 0.2005 | 1120.89 | 1.393
323.15 K, x1 = 0.3003 | 1139.33 | 1.4015
323.15 K, x1 = 0.4003 | 1151.42 | 1.4055
323.15 K, x1 = 0.5006 | 1160.15 | 1.4075
323.15 K, x1 = 0.6004 | 1166.65 | 1.4105
323.15 K, x1 = 0.7008 | 1171.59 | 1.4125
323.15 K, x1 = 0.8006 | 1175.31 | 1.414
323.15 K, x1 = 0.899 | 1178.26 | 1.415
333.15 K, x1 = 0.0994 | 1079.15 | 1.3755
333.15 K, x1 = 0.2005 | 1113.47 | 1.39
333.15 K, x1 = 0.3003 | 1131.87 | 1.401
333.15 K, x1 = 0.4003 | 1144.01 | 1.405
333.15 K, x1 = 0.5006 | 1152.8 | 1.4075
333.15 K, x1 = 0.6004 | 1159.37 | 1.4095
333.15 K, x1 = 0.7008 | 1164.36 | 1.411
333.15 K, x1 = 0.8006 | 1168.12 | 1.4125
333.15 K, x1 = 0.899 | 1171.04 | 1.4135
343.15 K, x1 = 0.0994 | 1072.21 | 1.3755
343.15 K, x1 = 0.2005 | 1106.02 | 1.39
343.15 K, x1 = 0.3003 | 1124.41 | 1.401
343.15 K, x1 = 0.4003 | 1136.62 | 1.4045
343.15 K, x1 = 0.5006 | 1145.48 | 1.407
343.15 K, x1 = 0.6004 | 1152.11 | 1.407
343.15 K, x1 = 0.7008 | 1157.17 | 1.4085
343.15 K, x1 = 0.8006 | 1161 | 1.409
343.15 K, x1 = 0.899 | 1164.1 | 1.411

CCCCCCCC[n+]1ccn(C)c1.F[B-](F)(F)F [1-methyl-3-octylimidazolium tetrafluoroborate] + O
Conditions | mass density, [1] [kg/m3] | refractive index, [2]
293.15 K, x1 = 0.3005 | 1084.34 | 1.4165
293.15 K, x1 = 0.4006 | 1089.21 | 1.4205
293.15 K, x1 = 0.5002 | 1094.12 | 1.424
293.15 K, x1 = 0.6001 | 1098.16 | 1.4265
293.15 K, x1 = 0.7006 | 1100.51 | 1.4285
293.15 K, x1 = 0.8004 | 1103.28 | 1.4305
293.15 K, x1 = 0.9015 | 1104.81 | 1.4315
303.15 K, x1 = 0.3005 | 1076.96 | 1.414
303.15 K, x1 = 0.4006 | 1082.09 | 1.419
303.15 K, x1 = 0.5002 | 1087.07 | 1.422
303.15 K, x1 = 0.6001 | 1091.18 | 1.425
303.15 K, x1 = 0.7006 | 1093.59 | 1.4265
303.15 K, x1 = 0.8004 | 1096.42 | 1.428
303.15 K, x1 = 0.9015 | 1098.01 | 1.4295
313.15 K, x1 = 0.3005 | 1069.66 | 1.413
313.15 K, x1 = 0.4006 | 1074.86 | 1.4165
313.15 K, x1 = 0.5002 | 1080 | 1.4205
313.15 K, x1 = 0.6001 | 1084.21 | 1.423
313.15 K, x1 = 0.7006 | 1086.68 | 1.4245
313.15 K, x1 = 0.8004 | 1089.58 | 1.4265
313.15 K, x1 = 0.9015 | 1091.22 | 1.427
323.15 K, x1 = 0.3005 | 1061.92 | 1.4125
323.15 K, x1 = 0.4006 | 1067.52 | 1.416
323.15 K, x1 = 0.5002 | 1072.9 | 1.419
323.15 K, x1 = 0.6001 | 1077.21 | 1.422
323.15 K, x1 = 0.7006 | 1079.77 | 1.423
323.15 K, x1 = 0.8004 | 1082.8 | 1.424
323.15 K, x1 = 0.9015 | 1084.48 | 1.4255
333.15 K, x1 = 0.3005 | – | 1.412
333.15 K, x1 = 0.4006 | – | 1.415
333.15 K, x1 = 0.5002 | – | 1.4185
333.15 K, x1 = 0.6001 | – | 1.4195
333.15 K, x1 = 0.7006 | – | 1.421
333.15 K, x1 = 0.8004 | – | 1.4225
333.15 K, x1 = 0.9015 | – | 1.4235
343.15 K, x1 = 0.3005 | 1041.36 | 1.412
343.15 K, x1 = 0.4006 | 1049.84 | 1.414
343.15 K, x1 = 0.5002 | 1057.37 | 1.417
343.15 K, x1 = 0.6001 | 1062.23 | 1.419
343.15 K, x1 = 0.7006 | 1065.07 | 1.419
343.15 K, x1 = 0.8004 | 1069.34 | 1.4205
343.15 K, x1 = 0.9015 | 1070.96 | 1.4215
